Test results taken from patent publication US9376421B2, “Compounds and methods for myotonic dystrophy therapy” (The Board of Trustees of the University of Illinois, priority 2014, dated 2016).
“Also recorded” adds a separate entry of the source.

How the values were obtained:
[1] = test system: d(CTG)12; assay: Isothermal titration calorimetry, d(CTG)12; type: binding; settings: 25° C., 20 mM MOPS pH 7.0, 300 mM NaCl
Description: (§1) To directly assess the DNA-targeting ability of 9, ITC experiments were performed with oligonucleotide analogs of the various trinucleotide repeat sequences (Table 1). […] This supports the idea that 9 inhibits the transcription of CTG^exp by stabilizing its hairpin structure. […] The in vitro transcription experiment using (CTG[…]CAG)74 (SEQ ID NOS 3-4, respectively) and compounds 2, 5-7, and 9 was repeated but with (CUG)16 (SEQ ID NO: 1) added as a competitor.
(§2) Isothermal titration calorimetry (ITC) measurements were performed at 25° C. on a MicroCal VP-ITC (MicroCal, Inc., Northampton, Mass.). A standard experiment consisted of titrating 10 μL of a 500 μM ligand solution from a […] syringe (rotating at 300 rpm) into a sample cell containing 1.42 mL of a 10 μM DNA or RNA solution. An ITC experiment consisted of 28 total injections (first injection was 5 μL, subsequent injections were 10 μL), with a 10 s duration per injection and delay of 380 s between injections. The initial delay prior to the first injection was 300 s. To derive the heat associated with each injection, the area under each isotherm (microcalories per second versus seconds) was determined by integration by the graphing program Origin 7.0 (MicroCal, Inc. Northampton, Mass.). […]

[2] = test system: d(CTG.CAG)12; assay: Isothermal titration calorimetry, d(CTG.CAG)12; type: binding; settings: 25° C., 20 mM MOPS pH 7.0, 300 mM NaCl
Description: as §1, §2

[3] = test system: HIV FS; assay: Ligand-RNA binding affinity, HIV FS; set-up: species or system HIV-1
[4] = test system: (CTG.CAG)74; assay: In vitro transcription of (CTG.CAG)74; type: biochemical
Description: FIG. 8A-B. In vitro transcription of (CTG.CAG)74 (SEQ ID NOS 3-4, respectively). Ligands at different concentrations were incubated with 15 ng linearized plasmids in T7 RNA polymerse mixture at 37° C. After 2 h, the reaction mixture was on a 8% denaturing gel. (a) Transcription gels of ligands at different concentrations (“(CUG)74” is disclosed as SEQ ID NO: 22). (b) Plot of the percentage of transcription inhibition versus ligand concentrations. The error bars represent standard errors of mean of three independent experiments. Untreated at 100 μM is at 0%; ligand 2 at 100 μM is at ˜10%; ligand 7 at 100 μM is at ˜35%; ligand 6 at 100 μM is at ˜80%; ligand 9 at 100 μM is at ˜96%; and ligand 5 at 100 μM is at ˜99%.
(SEQ ID NOS 3-4, respectively) transcription by 5, 6, and 9 in vitro. […] Nonetheless, the additional ammonium groups in these agents might potentially increase their affinity for both CTG DNA and CUG RNA so we returned to examine the potential for inhibition of CTG^exp transcription. The in vitro (CTG.CAG)74 (SEQ ID NOS 3-4, respectively) transcription assays utilized a T7 promoter located in the upstream region of the repeats.
(SEQ ID NOS 3-4, respectively). T7 RNA polymerase-mediated transcription reactions were incubated at 37° C. for 2 h. A 10 μL mixture contained 15 ng of linearized plasmid (CTG)74 (SEQ ID NO: 3) or control plasmid templates, 0.5 mM each rATP, rCTP, rGTP, and rUTP and 0.5 U T7 polymerase (Biolab) in 1×T7 transcription buffer (80 mM Tris pH 8.3, 10 mM MgCl2, 2 mM spermine, 0.1% Triton-X, 10 mM NaCl). Ligand was added with the final concentrations of 0, 1, 10, 50, and 100 μM prior to incubation. Reactions were quenched by adding 8 μL of 8 M Urea and 2 μL of denaturing dye (95% formamide, 5 mM EDTA, 0.025% each xylene cyanol and bromophenol blue) and heating to 95° C. for 5 min. Of this solution, 15 μL was run on a 8% denaturing polyacrylamide gel in 0.5×TBE and stained with EtBr. Bands were quantified using the ImageJ (NIH). The intensity of (CUG)74 (SEQ ID NO: 22) band (ca. 260 nt) was normalized to that from the untreated transcription reaction. […]

[5] = test system: Drosophila bearing i(CUG)60; assay: Treatment of control Drosophila bearing i(CUG)60; settings: in vivo
Description: FIG. 15A-C. Rescuing disease phenotypes in DM1 Drosophila with ligands 2 and 9. […] The error bars represent the standard deviation of three independent experiments (“(CTG)60” is disclosed as SEQ ID NO: 5).

[6] = test system: MBNL1-CUGexp nuclear foci in HeLa cells transfected with GFP-DT960; settings: DM1 model cell cultures; cited from earlier work
[7] = cited from earlier work

N=C(NCCCCNc1nc(N)nc(N)n1)c1ccc(C(=N)NCCCCNc2nc(N)nc(N)n2)cc1 [Ligand 2]
binding affinity toward d(CTG)12 by ITC [1]: lack of binding affinity; also recorded: no detectable binding | binding affinity toward d(CTG.CAG)12 by ITC [2]: lack of binding affinity | affinity toward HIV FS [3]: no affinity | transcription inhibition of (CTG.CAG)74 at 100 μM ([4]; 100 μM, 2 h, 37° C., T7 RNA polymerase): ~10% | inhibition of (CTG.CAG)74 transcription (qualitative) ([4]; 1-100 μM): negligible effects | effects on larval locomotion and eyes of i(CUG)60 Drosophila [5]: no effects | dissolution of MBNL1-CUGexp nuclear foci (earlier work) [6]: dissolved the MBNL1-CUG^exp nuclear foci | water solubility in comparison to 1 [7]: higher water solubility
